From US20080051387A1, “TETRAHYDROPYRIDO[3,4-D]PYRIMIDINES AND RELATED ANALOGUES” (priority 2006, published 2008) come the findings set out here.

For this test, the target named is T1, chimeric human H3 receptor (Homo sapiens, UniProt Q9Y5N1).
T1 construct: rat Galpha-i2 (Gnai2, rat); made in house; host or cells: Sf9 insect cells (baculovirus); P2 membranes
Description: Chimeric human H3 receptor screening GTP binding assay (inhibition of histamine-stimulated GTP-gamma35S binding, Example 8). The format is biochemical. A digest of the protocol:
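Compound tested at 4 μM against 1 μM histamine stimulation; 125 pM GTP-gamma35S binding measured by filtration and scintillation after 60 min at room temperature. Membranes from Sf9 cells expressing chimeric human H3 plus G-protein subunits, in Tris pH 7.4/NaCl/MgCl2/GDP buffer; values are % inhibition after nonspecific subtraction.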
In general terms: GTPγS is a poorly hydrolysed GTP analogue; its binding reports G protein activation.

Where [1] appears, read: 1 h, assay of Example 8, symbol "!" in column headed Ki, read-out: percent inhibition of agonist-induced GTP-gammaS binding to H3.
Setting [2] is: 1 h, assay described in Example 8, symbol "!" in column headed Ki, read-out: Ki ("!": percent inhibition of agonist-induced GTP-gammaS binding to H3).
The mark [3] stands for this setting: symbol ! in Ki, test compound 4 μM, 1 μM histamine, read-out: percent inhibition of agonist-induced GTP-gammaS binding to H3.

Like-named read-outs stand apart in the source and are kept apart here.

T1 sequence (Q9Y5N1 with tags, fused parts or gaps): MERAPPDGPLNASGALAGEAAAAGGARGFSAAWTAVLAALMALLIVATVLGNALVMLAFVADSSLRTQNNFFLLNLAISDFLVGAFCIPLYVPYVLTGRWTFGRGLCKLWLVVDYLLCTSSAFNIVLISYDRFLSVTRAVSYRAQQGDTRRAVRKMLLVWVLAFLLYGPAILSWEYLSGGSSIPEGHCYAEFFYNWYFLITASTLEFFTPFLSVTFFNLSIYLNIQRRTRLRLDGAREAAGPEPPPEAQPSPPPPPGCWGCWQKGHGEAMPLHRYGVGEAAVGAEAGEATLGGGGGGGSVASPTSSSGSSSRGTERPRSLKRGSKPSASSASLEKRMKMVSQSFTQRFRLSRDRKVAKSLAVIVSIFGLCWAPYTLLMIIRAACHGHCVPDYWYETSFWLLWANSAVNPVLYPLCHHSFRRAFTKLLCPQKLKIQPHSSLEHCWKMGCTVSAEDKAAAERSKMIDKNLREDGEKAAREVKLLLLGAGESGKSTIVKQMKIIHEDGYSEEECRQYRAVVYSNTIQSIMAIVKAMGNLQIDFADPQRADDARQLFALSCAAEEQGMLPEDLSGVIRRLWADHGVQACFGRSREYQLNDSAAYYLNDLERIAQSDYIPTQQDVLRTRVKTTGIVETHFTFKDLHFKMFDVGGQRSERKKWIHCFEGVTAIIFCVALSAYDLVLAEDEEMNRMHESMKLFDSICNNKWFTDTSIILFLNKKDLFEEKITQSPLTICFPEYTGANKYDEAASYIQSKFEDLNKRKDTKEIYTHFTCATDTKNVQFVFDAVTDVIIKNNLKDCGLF

For `COc1ccc(OCC(=O)N2CCc3cnc(N4CCN(C5CCC5)CC4)nc3CC2)cc1` [Compound 325, 2-(4-cyclobutylpiperazin-1-yl)-7-[(4-methoxyphenoxy)acetyl]-6,7,8,9-tetrahydro-5H-pyrimido[4,5-d]azepine], the inhibition (usually the relative decrease from the control value, in per cent) at 4 µM under setting [1] was at least 90%.

As to `Cc1ccccc1/C=C/C(=O)N1CCc2cnc(N3CCN(C4CCC4)CC3)nc2CC1` [Compound 572, 2-(4-cyclobutylpiperazin-1-yl)-7-[(2E)-3-(2-methylphenyl)prop-2-enoyl]-6,7,8,9-tetrahydro-5H-pyrimido[4,5-d]azepine], the inhibition at 4 µM under setting [2] is at least 90%. On to `Cc1cccc(OCC(=O)N2CCc3cnc(N4CCN(C5CCC5)CC4)nc3CC2)c1C` [Compound 327, 2-(4-cyclobutylpiperazin-1-yl)-7-[(2,3-dimethylphenoxy)acetyl]-6,7,8,9-tetrahydro-5H-pyrimido[4,5-d]azepine], for which the inhibition at 4 µM under setting [1] was at least 90%. Consider `O=C(c1ccc(C(F)(F)F)cc1)N1CCc2cnc(N3CCN(C4CCC4)CC3)nc2CC1` [Compound 269, 2-(4-cyclobutylpiperazin-1-yl)-7-[4-(trifluoromethyl)benzoyl]-6,7,8,9-tetrahydro-5H-pyrimido[4,5-d]azepine], for which the inhibition at 4 µM under setting [1] was at least 90%. For the compound `COc1ccc(C(C)N2CCc3c(ncnc3N3CCN(C4CCC4)CC3)C2)c(OC)c1` (centres unmarked) [Compound 114, 4-(4-cyclobutylpiperazin-1-yl)-7-[1-(2,4-dimethoxyphenyl)ethyl]-5,6,7,8-tetrahydropyrido[3,4-d]pyrimidine], the inhibition at 4 µM under setting [3] was at least 90%. Same read-out and setting: the figure for `CC(c1nccn1C)N1CCc2c(ncnc2N2CCN(C3CCC3)CC2)C1` (centres unmarked) [Compound 107, 4-(4-cyclobutylpiperazin-1-yl)-7-[1-(1-methyl-1H-imidazol-2-yl)ethyl]-5,6,7,8-tetrahydropyrido[3,4-d]pyrimidine] is at least 90%.

For `c1nc(N2CCN(C3CCC3)CC2)nc2c1CN(CC1CC1)CC2` [Compound 634, 2-(4-cyclobutylpiperazin-1-yl)-6-(cyclopropylmethyl)-5,6,7,8-tetrahydropyrido[4,3-d]pyrimidine], under setting [3], the inhibition at 4 µM is at least 90%.

As to `O=C(C1COc2ccccc2O1)N1CCc2cnc(N3CCN(C4CCC4)CC3)nc2CC1` (centres unmarked) [Compound 341, 2-(4-cyclobutylpiperazin-1-yl)-7-(2,3-dihydro-1,4-benzodioxin-2-ylcarbonyl)-6,7,8,9-tetrahydro-5H-pyrimido[4,5-d]azepine], under setting [1], the inhibition at 4 µM was at least 90%. Regarding `CC(C)(Oc1ccc(Cl)cc1)C(=O)N1CCc2cnc(N3CCN(C4CCC4)CC3)nc2CC1` [Compound 337, 7-[2-(4-chlorophenoxy)-2-methylpropanoyl]-2-(4-cyclobutylpiperazin-1-yl)-6,7,8,9-tetrahydro-5H-pyrimido[4,5-d]azepine], the inhibition at 4 µM under setting [1] was at least 90%. With `CC(C)CCN1CCc2ncnc(N3CCN(C4CCC4)CC3)c2CC1` [Compound 161, 4-(4-cyclobutylpiperazin-1-yl)-7-(3-methylbutyl)-6,7,8,9-tetrahydro-5H-pyrimido[4,5-d]azepine], the inhibition at 4 µM under setting [3] was at least 90%.

Regarding `CCn1nc(C)c(Br)c1C(=O)N1CCc2cnc(N3CCN(C4CCC4)CC3)nc2CC1` [Compound 509, 7-[(4-bromo-1-ethyl-3-methyl-1H-pyrazol-5-yl)carbonyl]-2-(4-cyclobutylpiperazin-1-yl)-6,7,8,9-tetrahydro-5H-pyrimido[4,5-d]azepine], under setting [2], the inhibition at 4 µM is at least 90%. Turning to `CC(C)Oc1ccc(C(=O)N2CCc3cnc(N4CCN(C5CCC5)CC4)nc3CC2)cc1` [Compound 380, 2-(4-cyclobutylpiperazin-1-yl)-7-(4-isopropoxybenzoyl)-6,7,8,9-tetrahydro-5H-pyrimido[4,5-d]azepine], the inhibition at 4 µM under setting [1] is at least 90%. On the same count and under the same terms, to `CCOc1ccc(Br)cc1/C=C/C(=O)N1CCc2cnc(N3CCN(C4CCC4)CC3)nc2CC1` [Compound 587, 7-[(2E)-3-(5-bromo-2-ethoxyphenyl)prop-2-enoyl]-2-(4-cyclobutylpiperazin-1-yl)-6,7,8,9-tetrahydro-5H-pyrimido[4,5-d]azepine] belongs at least 90%; to `CCCC(C)CN1CCc2cnc(N3CCN(C4CCC4)CC3)nc2CC1` (centres unmarked) [Compound 255, 2-(4-cyclobutylpiperazin-1-yl)-7-(2-methylpentyl)-6,7,8,9-tetrahydro-5H-pyrimido[4,5-d]azepine], at least 90%. On to `COc1cccc(CN2CCc3ncnc(N4CCN(C5CCC5)CC4)c3CC2)c1OC` [Compound 175, 4-(4-cyclobutylpiperazin-1-yl)-7-(2,3-dimethoxybenzyl)-6,7,8,9-tetrahydro-5H-pyrimido[4,5-d]azepine], for which the inhibition at 4 µM under setting [3] is at least 90%. Same read-out and setting: to `CC(c1ccccc1)N1CCc2c(ncnc2N2CCN(C3CCC3)CC2)C1` (centres unmarked) [Compound 101, 4-(4-cyclobutylpiperazin-1-yl)-7-(1-phenylethyl)-5,6,7,8-tetrahydropyrido[3,4-d]pyrimidine] belongs at least 90%. `Cc1cc(C(=O)N2CCc3cnc(N4CCN(C5CCC5)CC4)nc3CC2)c(C)o1` [Compound 465, 2-(4-cyclobutylpiperazin-1-yl)-7-(2,5-dimethyl-3-furoyl)-6,7,8,9-tetrahydro-5H-pyrimido[4,5-d]azepine]: the inhibition at 4 µM under setting [2] is at least 90%. As for `O=C(c1ccccc1Oc1ccc(Cl)cc1)N1CCc2cnc(N3CCN(C4CCC4)CC3)nc2CC1` [Compound 419, 7-[2-(4-chlorophenoxy)benzoyl]-2-(4-cyclobutylpiperazin-1-yl)-6,7,8,9-tetrahydro-5H-pyrimido[4,5-d]azepine], the inhibition at 4 µM under setting [2] was at least 90%. On to `CC(C)CCN1CCc2c(ncnc2N2CCN(C3CCC3)CC2)C1` [Compound 82, 4-(4-cyclobutylpiperazin-1-yl)-7-(3-methylbutyl)-5,6,7,8-tetrahydropyrido[3,4-d]pyrimidine], for which, under setting [3], the inhibition at 4 µM was at least 90%. Consider `c1ccc(CN2CCc3c(ncnc3N3CCN(CCCN4CCCCC4)CC3)C2)cc1` [Compound 21, 7-benzyl-4-[4-(3-piperidin-1-ylpropyl)piperazin-1-yl]-5,6,7,8-tetrahydropyrido[3,4-d]pyrimidine], for which the inhibition at 4 µM under setting [3] is at least 90%. Still for that read-out and setting: to `Fc1cccc(CN2CCc3ncnc(N4CCN(C5CCC5)CC4)c3CC2)c1` [Compound 146, 4-(4-cyclobutylpiperazin-1-yl)-7-(3-fluorobenzyl)-6,7,8,9-tetrahydro-5H-pyrimido[4,5-d]azepine] belongs at least 90%. As to `Cc1cc(C(=O)N2CCc3cnc(N4CCN(C5CCC5)CC4)nc3CC2)c(C(F)(F)F)o1` [Compound 467, 2-(4-cyclobutylpiperazin-1-yl)-7-[5-methyl-2-(trifluoromethyl)-3-furoyl]-6,7,8,9-tetrahydro-5H-pyrimido[4,5-d]azepine], under setting [2], the inhibition at 4 µM is at least 90%. With `O=C(c1ccoc1)N1CCc2cnc(N3CCN(C4CCC4)CC3)nc2CC1` [Compound 197, 2-(4-cyclobutylpiperazin-1-yl)-7-(3-furoyl)-6,7,8,9-tetrahydro-5H-pyrimido[4,5-d]azepine], under setting [1], the inhibition at 4 µM is at least 90%. As to `CCn1cncc1CN1CCc2ncnc(N3CCN(C4CCC4)CC3)c2CC1` [Compound 177, 4-(4-cyclobutylpiperazin-1-yl)-7-[(1-ethyl-1H-imidazol-5-yl)methyl]-6,7,8,9-tetrahydro-5H-pyrimido[4,5-d]azepine], under setting [3], the inhibition at 4 µM is at least 90%. On to `Clc1ccccc1CN1CCc2c(ncnc2N2CCN(C3CCC3)CC2)C1` [Compound 98, 7-(2-chlorobenzyl)-4-(4-cyclobutylpiperazin-1-yl)-5,6,7,8-tetrahydropyrido[3,4-d]pyrimidine], for which the inhibition at 4 µM under setting [3] was at least 90%.

Consider `COc1ccc(C(=O)N2CCc3cnc(N4CCN(C5CCC5)CC4)nc3CC2)cc1F` [Compound 371, 2-(4-cyclobutylpiperazin-1-yl)-7-(3-fluoro-4-methoxybenzoyl)-6,7,8,9-tetrahydro-5H-pyrimido[4,5-d]azepine], for which the inhibition at 4 µM under setting [1] is at least 90%. Regarding `COCCC(=O)N1CCc2cnc(N3CCN(C4CCC4)CC3)nc2CC1` [Compound 214, 2-(4-cyclobutylpiperazin-1-yl)-7-(3-methoxypropanoyl)-6,7,8,9-tetrahydro-5H-pyrimido[4,5-d]azepine], the inhibition at 4 µM under setting [1] was at least 90%. `c1nc2c(c(N3CCN(C4CCC4)CC3)n1)CCN(CC1CC1)CC2` [Compound 169, 4-(4-cyclobutylpiperazin-1-yl)-7-(cyclopropylmethyl)-6,7,8,9-tetrahydro-5H-pyrimido[4,5-d]azepine]: the inhibition at 4 µM under setting [3] is at least 90%. Take `O=C(Cc1ccc(Oc2ccccc2)cc1)N1CCc2cnc(N3CCN(C4CCC4)CC3)nc2CC1` [Compound 283, 2-(4-cyclobutylpiperazin-1-yl)-7-[(4-phenoxyphenyl)acetyl]-6,7,8,9-tetrahydro-5H-pyrimido[4,5-d]azepine]: under setting [1], the inhibition at 4 µM is at least 90%. With `O=C(c1cc(-c2ccccc2)nc2ccccc12)N1CCc2cnc(N3CCN(C4CCC4)CC3)nc2CC1` [Compound 488, 2-(4-cyclobutylpiperazin-1-yl)-7-[(2-phenylquinolin-4-yl)carbonyl]-6,7,8,9-tetrahydro-5H-pyrimido[4,5-d]azepine], the inhibition at 4 µM under setting [2] is at least 90%. For `Cc1ccccc1C(C(=O)N1CCc2cnc(N3CCN(C4CCC4)CC3)nc2CC1)C(C)C` (centres unmarked) [Compound 351, 2-(4-cyclobutylpiperazin-1-yl)-7-[3-methyl-2-(2-methylphenyl)butanoyl]-6,7,8,9-tetrahydro-5H-pyrimido[4,5-d]azepine], the inhibition at 4 µM under setting [1] was at least 90%.

With `Cc1ccc(CN2CCc3cnc(N4CCN(C5CCC5)CC4)nc3CC2)cc1C` [Compound 257, 2-(4-cyclobutylpiperazin-1-yl)-7-(3,4-dimethylbenzyl)-6,7,8,9-tetrahydro-5H-pyrimido[4,5-d]azepine], the inhibition at 4 µM under setting [1] was at least 90%.
